Structures are written as SMILES. “Also recorded” adds a separate entry of the source.

This data set is described as follows: Solubility check: coated film of Cytop CTL-809M fluororesin solution observed by optical microscope for bleed-out or undissolved compound. Type of data set: physicochemical. The settings on record: compound at 0.3 wt % with respect to Cytop CTL-809M in perfluorotributylamine/1,1,1,3,3,3-hexafluoropropan-2-ol/Cytop CTL-809M=91/5/4 (parts by weight); film 1.5 μm on glass, dried. The protocol: To a mixed solution of perfluorotributylamine/1,1,1,3,3,3-hexafluoropropan-2-ol/Cytop CTL-809M (manufactured by Asahi Glass Co., Ltd.)=91/5/4 (parts by weight), was added the compound represented by formula (1) according to the invention (any of Compounds 1-1 to 1-8) or Comparative Compound C-1 or C-2 as shown below in an amount of 0.3 wt % with respect to the Cytop CTL-809M. Thereafter, the mixed solution was applied onto a glass substrate to a film thickness of 1.5 μm and dried.
Regarding `CC(C)(C)c1cc(CCC(=O)OCC(F)(F)C(F)(F)C(F)(F)C(F)(F)C(F)(F)C(F)(F)C(F)(F)C(F)(F)C(F)(F)F)cc(C(C)(C)C)c1O` [Compound 1-1], the Solubility result is “Compatible”.
The value for `CC(C)(C)c1cc(CCC(=O)OCC(O)CC(F)(F)C(F)(F)C(F)(F)C(F)(F)C(F)(F)C(F)(F)C(F)(F)C(F)(F)F)cc(C(C)(C)C)c1O` (stereo not shown) [Compound 1-2] was “Compatible”; that for `Cc1cc(CCC(=O)OCC(F)(F)C(F)(F)C(F)(F)C(F)(F)C(F)(F)C(F)(F)C(F)(F)C(F)(F)C(F)(F)F)cc(C(C)(C)C)c1O` [Compound 1-3] was “Compatible”.
Consider `CC(C)(C)c1cc(CCC(=O)OCC(F)(F)C(F)(F)C(F)(F)C(F)(F)C(F)(F)C(F)(F)C(F)(F)C(F)(F)F)cc(C(C)(C)C)c1O` [Compound 1-4], for which the Solubility result is reported as “Compatible”.
The value for `CC(C)(C)c1cc(CCC(=O)OCCC(F)(F)C(F)(F)C(F)(F)C(F)(F)C(F)(F)C(F)(F)F)cc(C(C)(C)C)c1O` [Compound 1-5] was “Compatible”; that for `Cc1cc(CCC(=O)OCC(F)(F)C(F)(F)C(F)(F)C(F)(F)C(F)(F)C(F)(F)C(F)(F)C(F)(F)C(F)(F)F)cc(C)c1O` [Compound 1-6] was “Compatible”; that for `CC(C)(C)c1cc(CCC(=O)OC(CO)CC(F)(F)C(F)(F)C(F)(F)C(F)(F)C(F)(F)C(F)(F)F)cc(C(C)(C)C)c1O` (stereo not shown) [Compound 1-7] was “Compatible”.
Consider `Cc1cc(CCC(=O)OCC(F)(F)C(F)(F)C(F)(F)C(F)(F)C(F)(F)C(F)(F)C(F)(F)C(F)(F)C(F)(F)C(F)(F)F)cc(C)c1O` [Compound 1-8], for which the Solubility entry is given as “Compatible”.
The entry for `CCCCCCCCCCOC(=O)CCc1cc(C(C)(C)C)c(O)c(C(C)(C)C)c1` [Compound C-1, reference compound] is “remained partially undissolved; also recorded: Remain partially”; for `CC(C)(C)c1cc(CCC(=O)OCC(O)CC(F)(F)C(F)(F)C(F)(F)F)cc(C(C)(C)C)c1O` (stereo not shown) [Compound C-2, reference compound] it is “bled out on the resin surface; also recorded: Bleed out (a compound which bleeds out is denoted by “Bleed out,”)”.

The values above are taken from patent US20150329467A1, “FLUORINE ATOM-CONTAINING PHENOL COMPOUND” (FUJIFILM CORPORATION, priority 2012, published 2015).
